Measured values published in patent US4305872A, “Polypeptide derivatives” (priority 1979, dated 1981).

Columns and labels:
[1] = test system: TRH-Induced Release of Radioactive (125I) Iodide from the Thyroid; test: McKenzie Bioassay for TRH-Induced Release of Radioactive (125I) Iodide from the Thyroid; type: in vivo, Long-Evans male rats; settings: worked Example; for (I-125) cpm/200 ul blood at THR: tail vein; for Δ cpm: net of saline control
Procedure: 16 Long-Evans male rats were maintained on an iodine deficient diet for 1 week. Each rat was then injected intraperitoneally (i.p.) with 20 μCi of radioactive (Na^125 I). Six hours before injection of the material to be tested, the animals were given 0.03% propylthioluracil (PTU) in their drinking water. This prevents the re-uptake of released ^125 I (iodoproteins such as mono- and diodo-tyrosines, T3 or T4) once they are released from the thyroid under the influence of TRH or TRH analogue. 24 hrs. after administration of the radioactive iodine (0.2 ml) 200 μl of blood was withdrawn from the tail vein of each rat, transferred quantitatively into a 12×75 mm test tube containing 1 ml of 0.9% saline and the ^125 I content counted by use of a Beckmann γ-ray spectrometer. One ml of TRH or TRH analogue dissolved in 0.9% NaCl (physiologic saline) was injected into the tail vein of each of four rats per dose considered (e.g. 0.4 μgm, 40 μgm, 80 μgm). 1 ml of 0.9% NaCl (physiologic saline) was injected also to each of four rats to serve as a control for stress-related influence (trauma from blood collecting procedure and anesthesia) on release of ^125 I from the thyroid gland. Once the saline control or designated dose of TRH or TRH analogue has been injected, blood samples (0.2 ml) are collected from the tail vein of each rat at 30 minutes, 1 hr, 2 hrs, and 3 hrs. and the ^125 I content evaluated as described above. Upon completion of the experiment, animals are kept for a 24 hr time period to observe any adverse toxicological effects. If they maintain their usual behavior (vital signs), it is assumed the compounds tested cause no overt physiological effects.
An increase in I-125 content above the basal level, as exemplified by the saline control, indicates a TRH induced release of TSH (thyrotropin stimulating hormone) which in turn causes release of I-125 from the thyroid. This type of response means the […] hormone physiologic mechanism (hypothalamo-pituitary-thyroid axis) is working properly, and the animals are suitable for testing. […] For each dose level considered, the radio-activity content of I-125 (cpm) per 200 μl of blood is evaluated at each time period and subtracted from the saline control radioactivity (I-125) content to obtain the Δ cpm released from thyroid. The net cpm released is therefore evaluated, rather than the absolute radio-activity for each time period and dose level.
To evaluate the effect of TRH analogues (TRH-CMK or TRH-DMK) on the TRH-TSH release of I-125 from the thyroid, each animal of a test group (4 animals) was injected with 1 ml of a given dose of the TRH analogue into the tail vein. […] Blood samples (0.2 ml) were then collected at various times (e.g. 1/2, 1 hr, 2 hrs, etc.) and evaluated for their I-125 content. […]

Serum TSH level = test: 6 Point Parallel Line Assay, serum TSH level after inhibitor then TRH; type: in vivo; settings: no inhibitor (saline injected)
Procedure: (§1) 6 Point Parallel Line Assay Design:
(§2) 3 sample, 3 standard samples
(§3) Responses expressed in (Ng/ml)
(§4) Animals challenged with peptide derivative dissolved in 0.85% NaCl.
(§5) Total Injection Volume: 0.25 ml
(§6) Anatomical Site of Injection: Jugular vein
(§7) Samples obtained by subjecting animal to ether anesthesia, and sacrificing animal.
(§8) Each animal was injected via jugular vein 0.25 ml of peptide derivative: to insure sample was injected into vein, the syringe plunger was gently retracted, if blood could be withdrawn, then the sample was injected. Following injection, the syringe was rinsed with blood and injected. 1/2-hour following injection of the peptide derivative, using the same procedure, a TRH dose-response curve was made using the same injection technique.
(§9) 0 time--injection of TRH derivative (80 ugm)
(§10) 1/2 hr.--injection of TRH (4, 40, and 80 ugm)
(§11) 1 hrs.--blood sample collected

Serum Prolactin Level = test: 6 Point Parallel Line Assay, serum prolactin level after inhibitor then TRH; type: in vivo; settings: no inhibitor (saline injected)
Procedure: as §1, §2, §3, §4, §5, §6, §7, §8, §9, §10, §11

[2] = test system: guinea pig ileum (opiate receptor site); test: Guinea pig ileum (GPI) assay for enkephalin activity, electrically stimulated contractions; settings: specificity controls; FIGS. 6-9

Compound | (I-125) cpm/200 ul blood at THR ([1]; 0.4 μgm TRH) | Δ cpm ([1]; 0.4 μgm TRH) | (I-125) cpm/200 ul blood at THR ([1]; 4 μgm TRH) | Δ cpm ([1]; 4 μgm TRH) | Serum TSH level (Serum TSH level; FIRST EXPERIMENT, TRH 4 μg) | Serum TSH level (Serum TSH level; FIRST EXPERIMENT, TRH 40 μg) | Serum TSH level (Serum TSH level; FIRST EXPERIMENT, TRH 80 μg) | Serum TSH level (Serum TSH level; SECOND EXPERIMENT, TRH 4 μg) | Serum TSH level (Serum TSH level; SECOND EXPERIMENT, TRH 40 μg) | Serum TSH level (Serum TSH level; SECOND EXPERIMENT, TRH 80 μg) | Serum Prolactin Level (Serum Prolactin Level; FIRST EXPERIMENT, TRH 4 μg) | Serum Prolactin Level (Serum Prolactin Level; FIRST EXPERIMENT, TRH 40 μg) | Serum Prolactin Level (Serum Prolactin Level; FIRST EXPERIMENT, TRH 80 μg) | Serum Prolactin Level (Serum Prolactin Level; SECOND EXPERIMENT, TRH 4 μg) | Serum Prolactin Level (Serum Prolactin Level; SECOND EXPERIMENT, TRH 40 μg) | Serum Prolactin Level (Serum Prolactin Level; SECOND EXPERIMENT, TRH 80 μg) | whether it effects a response on the GPI (neither = no response) [2]
NC(=O)[C@@H]1CCCN1C(=O)[C@H](Cc1c[nH]cn1)NC(=O)[C@@H]1CCC(=O)N1 [TRH, L-pyroglutamyl-L-histidyl-L-prolinamide] | 261 cpm/200 ul | +141 cpm | 358 cpm/200 ul | +238 cpm | 312 ng/mL | 412 ng/mL | 1139 ng/mL | 167 ng/mL | 612 ng/mL | 839 ng/mL | 61 ng/mL | 76 ng/mL | 216 ng/mL | 46 ng/mL | 150 ng/mL | 181 ng/mL | –
N-tosyl-phenylalanine chloromethyl ketone | – | – | – | – | – | – | – | – | – | – | – | – | – | – | – | – | neither
